Experimental data reported in US20070249670A1, “Glycogen Phosphorylase Inhibitor Compounds and Pharmaceutical Compositions Thereof” (SMITHKLINE BEECHAM CORPORATION, priority 2004, published 2007).
Where a name gives a salt, the structure may show the parent alone.

Target: T1, human liver glycogen phosphorylase a (HLGPa) (Homo sapiens, UniProt P06737)
T1 construct: creating a full-length cDNA fused at the 5′ end to codons for methionine-glycine-alanine-histidine; 6xHis tag (leader Met-Gly-Ala-His6-Gly-Gly) (N); made in house; host or cells: E. coli (bacterial expression plasmid pTXK1007LTev)
T1 sequence (P06737 2-847 limits assumed): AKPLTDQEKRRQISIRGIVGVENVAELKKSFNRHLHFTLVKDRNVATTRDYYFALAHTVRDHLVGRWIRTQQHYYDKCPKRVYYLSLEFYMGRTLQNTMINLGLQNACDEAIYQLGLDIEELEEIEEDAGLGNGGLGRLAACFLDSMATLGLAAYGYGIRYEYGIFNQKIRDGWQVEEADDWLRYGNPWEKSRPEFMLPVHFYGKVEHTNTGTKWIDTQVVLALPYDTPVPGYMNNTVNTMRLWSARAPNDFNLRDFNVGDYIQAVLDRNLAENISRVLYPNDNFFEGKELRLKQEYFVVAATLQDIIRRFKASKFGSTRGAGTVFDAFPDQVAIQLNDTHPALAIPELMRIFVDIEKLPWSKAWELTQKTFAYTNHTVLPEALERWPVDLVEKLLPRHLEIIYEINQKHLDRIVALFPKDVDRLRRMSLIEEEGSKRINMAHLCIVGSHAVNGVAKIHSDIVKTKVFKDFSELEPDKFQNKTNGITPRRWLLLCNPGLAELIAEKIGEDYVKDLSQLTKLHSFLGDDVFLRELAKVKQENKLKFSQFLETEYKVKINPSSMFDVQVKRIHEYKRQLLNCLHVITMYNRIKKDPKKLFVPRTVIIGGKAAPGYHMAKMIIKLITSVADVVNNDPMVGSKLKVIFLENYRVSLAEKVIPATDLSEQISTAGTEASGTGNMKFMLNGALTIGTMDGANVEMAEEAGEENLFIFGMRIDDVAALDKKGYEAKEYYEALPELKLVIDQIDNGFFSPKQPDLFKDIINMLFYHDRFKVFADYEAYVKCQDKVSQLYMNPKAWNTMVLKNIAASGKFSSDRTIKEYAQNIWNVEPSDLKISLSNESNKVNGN
Assay: Human liver glycogen phosphorylase a enzymatic activity assay (coupled, fluorescent resorufin readout, with and without 10 mM glucose)
Format: biochemical

[1] = human liver glycogen phosphorylase a, table does not say whether with or without 10 mM glucose
[2] = human liver glycogen phosphorylase a enzymatic activity assay

| Structure (SMILES) | IC50 [1] [nM] | IC50 [2] [nM] |
| --- | --- | --- |
| Cc1cc(C)c(NC(=O)Nc2cc3ccccc3cc2C(=O)NC(C(=O)O)C2CCC(NC3CCC3)CC2)c(C)c1 (mixture of isomers) [Example 347, (cis and trans)-[4-(cyclobutylamino)cyclohexyl]({[3-({[(2,4,6-trimethylphenyl)amino]carbonyl}amino)-2-naphthalenyl]carbonyl}amino)acetic acid] | 810 | – |
| Cc1cc(C)c(NC(=O)Nc2cc3ccccc3cc2C(=O)NC(C(=O)O)C2CCC(N3CCOCC3)CC2)c(C)c1 (mixture of isomers) [Example 348, (cis and trans)-[4-(4-morpholinyl)cyclohexyl]({[3-({[(2,4,6-trimethylphenyl)amino]carbonyl}amino)-2-naphthalenyl]carbonyl}amino)acetic acid] | 1860 | – |
| COC(=O)C(NC(=O)c1cc2ccccc2cc1NC(=O)Nc1c(C)cc(C)cc1C)C1CCC(NC(=O)OC(C)(C)C)CC1 (mixture of isomers) [Example 349, (cis and trans)-methyl[4-({[(1,1-dimethylethyl)oxy]carbonyl}amino)cyclohexyl] ({[3-({[(2,4,6-trimethylphenyl)amino]carbonyl}amino)-2-naphthalenyl]carbonyl}amino)acetate] | 6890 | – |
| Cc1cc(C)c(NC(=O)Nc2cc3ccccc3cc2C(=O)NC(C(=O)O)C2CCC(NC(=O)OC(C)(C)C)CC2)c(C)c1 (mixture of isomers) [Example 350, (cis and trans)-[4-({[(1,1-dimethylethyl)oxy]carbonyl}amino)cyclohexyl]({[3-({[(2,4,6-trimethylphenyl)amino]carbonyl}amino)-2-naphthalenyl]carbonyl}amino)acetic acid] | 44 | – |
| Cc1cc(C)c(NC(=O)Nc2cc3ccccc3cc2C(=O)NC(C(=O)O)C2CCC(N)CC2)c(C)c1 (mixture of isomers) [Example 351, (cis and trans)-(4-aminocyclohexyl)({[3-({[(2,4,6-trimethylphenyl)amino]carbonyl}amino)-2-naphthalenyl]carbonyl}amino)acetic acid trifluoroacetate] | 2370 | – |
| CNC(=O)NC1CCC(C(NC(=O)c2cc3ccccc3cc2NC(=O)Nc2c(C)cc(C)cc2C)C(=O)O)CC1 (mixture of isomers) [Example 352, (cis and trans)-(4-{[(methylamino)carbonyl]amino}cyclohexyl)({[3-({[(2,4,6-trimethylphenyl)amino]carbonyl}amino)-2-naphthalenyl]carbonyl}amino)acetic acid] | 100 | – |
| Cc1cc(C)c(NC(=O)Nc2cc(Cl)cnc2C(=O)N[C@H](C(=O)O)C(C)OC(C)(C)C)c(C)c1 (stereo in doubt) [Example 318, N-{[5-chloro-3-({[(2,4,6-trimethylphenyl)amino]carbonyl}amino)-2-pyridinyl]carbonyl}-O-(1,1-dimethylethyl)-L-threonine] | 4280 | – |
| Cc1cccc(C)c1NC(=O)Nc1sc2c(c1C(=O)N[C@H](C(=O)O)C(C)C)CCCC2 [Example 3, N-{[2-({[(2,6-dimethylphenyl)amino]carbonyl}amino)-4,5,6,7-tetrahydro-1-benzothien-3-yl]carbonyl}-L-valine] | – | 32200 |
| Cc1cccc(C)c1NC(=O)Nc1sc2ccccc2c1C(=O)N[C@H](C(=O)O)C1CCCCC1 [Example 4, (2S)-cyclohexyl({[2-({[(2,6-dimethylphenyl)amino]carbonyl}amino)-1-benzothien-3-yl]carbonyl}amino)acetic acid] | – | 730 |
| Cc1cccc(Cl)c1NC(=O)Nc1cc2ccccc2cc1C(=O)NC(C(=O)O)C1CCCNC1 (centres unmarked) [Example 5, {[3-({[(2-chloro-6-methylphenyl)amino]carbonyl}amino)-2-naphthoyl]amino}(piperidin-3-yl)acetic acid trifluoroacetate] | – | 20900 |
| Cc1cc(CNC(=O)c2cc3ccccc3cc2NC(=O)Nc2c(C)cccc2Cl)on1 [Example 6, 3-({[(2-chloro-6-methylphenyl)amino]carbonyl}amino)-N-[(3-methylisoxazol-5-yl)methyl]-2-naphthamide] | – | 35100 |
